Key:
Hdy-HIF-1α = assay: Immunoblot of HIF-1α / hydroxylated HIF-1α levels in HeLa cells; assay type: cell-based, Human; conditions: HeLa; for stabilization of Hdy-HIF-1α: 100 µM; for protein levels of hydroxylated HIF-1α (Hdy-HIF-1α): 1 µM, 10 h
Experimental: (§1) Cell culture. Human cell lines HeLa, U2OS and HEK 293, purchased from ATCC, were propagated in DMEM supplemented with 10% fetal bovine serum (FBS), L- glutamine, 100 μg ml^−1 of penicillin/streptomycin at 37 °C and 5% CO2. Cells were maintained for no more than 30 passages. All cell lines were routinely tested for mycoplasma contamination using MycoAlert kit from Lonza. For compound treatment experiments, cells were transferred in six-well plates with either 3 × 10^5 or 5 × 10^5 cells per well in 2 ml of media. At 80% confluence, cells were treated with compounds at the desired concentration, reaching final DMSO concentration of 0.1% v/v. Cells were incubated at 37 °C and 5% CO2 for the desired time before harvesting.
(§2) Immunoblotting. Cells were lysed in lysis buffer (20 mM Tris pH 8, 150 mM NaCl, 1% Triton × 100) and a protease inhibitor cocktail (Roche) per 10 ml buffer. For protein extracts, the dishes were placed on ice. The media was aspirated and the tissue layer washed twice with ice-cold phosphate buffer saline (PBS). Lysis buffer (120 μl) was added and the cells detached from the surface with a cell scraper. After removal of the insoluble fraction by centrifugation, the protein concentration of the supernatant was determined by Pierce™ Coomassie (Bradford) Protein Assay Kit. Protein extracts were fractionated by SDS-PAGE on 4–12% Tris-Acetate NuPage® Novex® (Life Technologies) polyacrylamide gels and transferred to a nitrocellulose membrane using wet transfer. The membrane was then blocked with 5 % w/v Bovine serum albumin (BSA) in Tris-buffered saline (TBS) with 0.1% w/v Tween-20. For detecting proteins the following primary antibodies in the given concentrations were used: anti-β-Actin (Cell Signaling Technology, 4970S, 13E5) 1:2000, anti-VHL (Cell Signaling Technology, #68547) 1:1000, anti-Hif-1α (BD Biosciences, 610959, clone 54) 1:1,000, anti-hydroxy-HIF-1α (Hyp564) (Cell Signaling Techonology; #3434) 1:1,000, anti-PHD2 (Bethyl Laboratories; A300-322A) 1:1,000, anti-PHD3 (Bethyl Laboratories; A300-327A) 1:1000, anti-CRBN (Proteintech; 11435-1-AP) 1:1,000. Following incubation with a horseradish peroxidase-conjugated secondary antibody (Cell Signaling Technology), the signal was developed using enhanced chemiluminescence (ECL) Western Blotting Detection Kit (Amersham) on Amersham Hyperfilm ECL film (Amersham). Band quantification was performed using ImageJ software and reported as relative amount as ratio of the each protein band relative to the lane’s loading control. The values obtained were then normalized to 0.1% DMSO vehicle control. See Supplementary Fig. 12 for full-scanned images of western-blots shown in the main text figures.

[1] = system: Leucine-rich repeat-containing protein 42 (LRRC42); assay: TMT MS proteomics in HeLa cells, LRRC42 abundance; assay type: cell-based, Homo sapiens; conditions: 1 µM, 10 h, two replicates
Experimental: (§3) MS proteomics. Sample preparation. HeLa cells were seeded at 5 × 10^6 on a 10 cm plate 16 h before treatment. […] Cells were incubated at 37 °C and 5% CO2 for 10 h before harvesting. Cells were placed on ice and medium was removed and cells were washed twice with cold PBS. Cells were lysed in 0.5 ml of 100 mM Tris pH 8.0, 4% (w/v) SDS supplemented with protease inhibitor cocktail (Roche). The lysate was pulse sonicated briefly and then centrifuged at 17,000 × g for 15 min at 4 °C. The supernatant fraction of cell extract was snap-frozen in liquid nitrogen and stored in −80 °C freezer. Further sample processing, digestion, desalting, labeling and fractionation were performed as previously described.
(§4) nLC-MS/MS analysis. The TMT 10plex fractions were first analyzed as previously described. Briefly, the TMT 10plex fractions were analyzed sequentially on a Q Exactive HF Hybrid Quadrupole-Orbitrap Mass Spectrometer (Thermo Scientific) coupled to an UltiMate 3000 RSLCnano UHPLC system (Thermo Scientific) and EasySpray column (75 μm × 50 cm, PepMap RSLC C18 column, 2 μm, 100 Å, Thermo Scientific). The MS2 isolation window was set to 0.4 Da and the resolution set at 120,000. MS2 resolution was set at 60,000. The AGC targets for MS1 and MS2 were set at 3e^6 ions and 1e5 ions, respectively. The normalized collision energy was set at 32%. […] After the first analysis, the TMT labeled fractions were re-analyzed on the Q-Exactive HF using the same instrument settings and a target list generated from a theoretical trypsin digest of VHL. […] After the second analysis, two fractions were further analyzed using a targeted SIM/ddMS2 method on the Q-Exactive HF. […]
(§5) Peptide and protein identification. All the raw MS data files from the three analyses were merged and searched against the Uniprot-sprot-Trembl-Human-Canonical database by Maxquant software 1.5.3.30 for protein identification and TMT reporter ion quantitation. […] Quantified proteins were filtered if the absolute fold-change difference between the two DMSO replicates was ≥ 1.5.

[2] = system: Protein-glutamine gamma-glutamyltransferase E (TGM3); assay: TMT MS proteomics in HeLa cells, TGM3 abundance; assay type: cell-based, Homo sapiens; conditions: 1 µM, 10 h, two replicates
Experimental: as §3, §4, §5

pVHL30 = pVHL30 (Homo sapiens, UniProt P40337); assay: Immunoblot of pVHL30 protein level in U2OS cells (time course); assay type: cell-based; design: endogenous in cells; conditions: for cellular efficacy at longer time points: after 36 h; for time of treatment to complete degradation of pVHL30: time course
Sequence of pVHL30 (P40337 whole entry): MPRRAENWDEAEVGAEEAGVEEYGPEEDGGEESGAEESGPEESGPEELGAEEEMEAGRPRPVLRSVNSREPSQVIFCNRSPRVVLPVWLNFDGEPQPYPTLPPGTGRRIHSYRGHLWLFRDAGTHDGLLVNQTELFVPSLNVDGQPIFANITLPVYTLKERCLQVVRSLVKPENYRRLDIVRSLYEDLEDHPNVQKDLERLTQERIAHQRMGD
Experimental: as §1, §2

pVHL19 = pVHL19 (Homo sapiens, UniProt P40337); assay: Immunoblot of pVHL19 protein level in HeLa cells after compound treatment; assay type: cell-based; design: endogenous in cells; host or cells: HeLa; conditions: 1 µM, 10 h, DMSO = 100, Fig. 4a, read-out: pVHL19 band quantification normalized to 0.1% DMSO
Sequence of pVHL19 (P40337 54-213): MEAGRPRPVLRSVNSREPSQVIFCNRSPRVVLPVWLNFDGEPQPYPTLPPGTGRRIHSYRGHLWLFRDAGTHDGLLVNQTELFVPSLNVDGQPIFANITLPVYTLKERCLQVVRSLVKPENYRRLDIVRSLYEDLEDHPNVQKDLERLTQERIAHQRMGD
Sequence of pVHL19 (Q15369 whole entry partner): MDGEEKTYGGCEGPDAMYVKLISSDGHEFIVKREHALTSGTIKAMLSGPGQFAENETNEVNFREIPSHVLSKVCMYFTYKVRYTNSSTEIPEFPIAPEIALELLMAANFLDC
Sequence of pVHL19 (Q15370 whole entry partner): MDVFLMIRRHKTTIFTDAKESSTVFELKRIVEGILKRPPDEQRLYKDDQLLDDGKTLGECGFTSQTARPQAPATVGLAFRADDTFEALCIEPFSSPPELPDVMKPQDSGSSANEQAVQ
Experimental: as §1, §2

SMILES	stabilization of Hdy-HIF-1α (Hdy-HIF-1α)	average normalized ratio to DMSO, LRRC42 [1]	average normalized ratio to DMSO, TGM3 [2]	cellular efficacy at longer time points (pVHL30)	time of treatment to complete degradation of pVHL30 (pVHL30) [h]	remaining activity at 1 µM (pVHL19) [%]	protein levels of hydroxylated HIF-1α (Hdy-HIF-1α) (Hdy-HIF-1α)
Cc1ncsc1-c1ccc(CNC(=O)[C@@H]2C[C@@H](O)CN2C(=O)[C@@H](NC(=O)COCCOCCOCCOCC(=O)N[C@H](C(=O)N2C[C@H](O)C[C@H]2C(=O)NCc2ccc(-c3scnc3C)cc2)C(C)(C)C)C(C)(C)C)cc1 [CM09, N ^1 ,N ^14-bis((S)-1-((2S,4R)-4-hydroxy-2-((4-(4-methylthiazol-5-yl)benzyl)carbamoyl)pyrrolidin-1-yl)-3,3-dimethyl-1-oxobutan-2-yl)-3,6,9,12-tetraoxatetradecanediamide]	comparable with the effect obtained with VH032 alone	2.15	1.74	lost its cellular efficacy	2	102	
Cc1ncsc1-c1ccc(CNC(=O)[C@@H]2C[C@@H](O)CN2C(=O)[C@@H](NC(=O)COCCOCCOCCOCCOCC(=O)N[C@H](C(=O)N2C[C@H](O)C[C@H]2C(=O)NCc2ccc(-c3scnc3C)cc2)C(C)(C)C)C(C)(C)C)cc1 [CM10, N ^1 ,N ^17-bis((S)-1-((2S,4R)-4-hydroxy-2-((4-(4-methylthiazol-5-yl)benzyl)carbamoyl)pyrrolidin-1-yl)-3,3-dimethyl-1-oxobutan-2-yl)-3,6,9,12,15-pentaoxaheptadecanediamide]	comparable with the effect obtained with VH032 alone	0.64	0.99	retained their efficacy	2	92	detectable albeit low increase
Cc1ncsc1-c1ccc(CNC(=O)[C@@H]2C[C@@H](O)CN2C(=O)[C@@H](NC(=O)COCCOCCOCCOCCOCCOCC(=O)N[C@H](C(=O)N2C[C@H](O)C[C@H]2C(=O)NCc2ccc(-c3scnc3C)cc2)C(C)(C)C)C(C)(C)C)cc1 [CM11, N ^1 ,N ^20-bis((S)-1-((2S,4R)-4-hydroxy-2-((4-(4-methylthiazol-5-yl)benzyl)carbamoyl)pyrrolidin-1-yl)-3,3-dimethyl-1-oxobutan-2-yl)-3,6,9,12,15,18-hexaoxaicosanediamide]	comparable with the effect obtained with VH032 alone	0.60	0.72	retained their efficacy	1	91	detectable albeit low increase

— article PMC5635026, “Homo-PROTACs: bivalent small-molecule dimerizers of the VHL E3 ubiquitin ligase to induce self-degradation” (Nature Communications, 2017)
